Data reported in patent US11458138B2 (Novartis AG, priority 2017, dated 2022).

Legend:
LATS1 = LATS1 (Homo sapiens (Human), UniProt O95835); assay: LATS1 biochemical assay (Table 1A, Compound Examples 1-290; method in the earlier part)
[1] = tested on: Phospho-YAP (SER127) in HaCaT cells; assay: pYAP HTRF Assay (HaCaT Cells); assay type: cell-based, human; details: Homo sapiens, 2 hours
Protocol: The pYAP HTRF assay was performed using the Phospho-YAP (SER127) 10000 test kit (CisBio, catalogue number 64YAPPEH) according to manufacturer's instructions. Briefly, HaCaT cells were suspended at 1.1×10^6 cells/mL in DMEM (no phenol red)+10% FBS with penicillin-streptomycin-glutamine. 5 μL of cells were dispensed into 1536 well white solid bottom, tissue culture treated plates (5500 cells/well), and incubated for 48 hours at 37° C. 50 nL test compound was transferred into the assay plates containing HaCaT cells using Pintool (GNF) and incubated for 2 hours. […] The plates were incubated overnight (20 hrs) at room temperature covered with metal lids. Plates were read on Pherastar (BMG Labtech) for HTRF (665 nm/620 nm).

[2] = tested on: YAP nuclear translocation in HaCaT cells; assay: YAP Translocation Assay (HaCaT Cells); assay type: cell-based, human; details: Homo sapiens, 24 hours
Protocol: HaCaT cells were suspended at 0.4×10^6 cells/ml in DMEM+10% FBS with penicillin-streptomycin-glutamine. 50 μl of cells were dispensed into 384-well clear bottom assay plates (20,000 cells/well), and incubated overnight at 37° C. 100 nL test compound was transferred into the assay wells containing HaCaT cells using ECHO (Labcyte). After 24 hours incubation at 37° C., 7 μL of 32% PFA was dispensed into each well and incubated for 45 minutes at room temperature. Plates were washed 3 times with PBS, leaving 20 μL of PBS per well, then treated with 0.1% Triton and 1.5% BSA in PBS for 45 minutes at room temperature. Plates were washed for 5 times with PBS, leaving 20 μL of PBS per well. […] Plates were further washed 3 time with PBS, sealed and imaged on the high-content Opera imaging system (PerkinElmer).

Chain of LATS1 (O95835 whole entry, looked up): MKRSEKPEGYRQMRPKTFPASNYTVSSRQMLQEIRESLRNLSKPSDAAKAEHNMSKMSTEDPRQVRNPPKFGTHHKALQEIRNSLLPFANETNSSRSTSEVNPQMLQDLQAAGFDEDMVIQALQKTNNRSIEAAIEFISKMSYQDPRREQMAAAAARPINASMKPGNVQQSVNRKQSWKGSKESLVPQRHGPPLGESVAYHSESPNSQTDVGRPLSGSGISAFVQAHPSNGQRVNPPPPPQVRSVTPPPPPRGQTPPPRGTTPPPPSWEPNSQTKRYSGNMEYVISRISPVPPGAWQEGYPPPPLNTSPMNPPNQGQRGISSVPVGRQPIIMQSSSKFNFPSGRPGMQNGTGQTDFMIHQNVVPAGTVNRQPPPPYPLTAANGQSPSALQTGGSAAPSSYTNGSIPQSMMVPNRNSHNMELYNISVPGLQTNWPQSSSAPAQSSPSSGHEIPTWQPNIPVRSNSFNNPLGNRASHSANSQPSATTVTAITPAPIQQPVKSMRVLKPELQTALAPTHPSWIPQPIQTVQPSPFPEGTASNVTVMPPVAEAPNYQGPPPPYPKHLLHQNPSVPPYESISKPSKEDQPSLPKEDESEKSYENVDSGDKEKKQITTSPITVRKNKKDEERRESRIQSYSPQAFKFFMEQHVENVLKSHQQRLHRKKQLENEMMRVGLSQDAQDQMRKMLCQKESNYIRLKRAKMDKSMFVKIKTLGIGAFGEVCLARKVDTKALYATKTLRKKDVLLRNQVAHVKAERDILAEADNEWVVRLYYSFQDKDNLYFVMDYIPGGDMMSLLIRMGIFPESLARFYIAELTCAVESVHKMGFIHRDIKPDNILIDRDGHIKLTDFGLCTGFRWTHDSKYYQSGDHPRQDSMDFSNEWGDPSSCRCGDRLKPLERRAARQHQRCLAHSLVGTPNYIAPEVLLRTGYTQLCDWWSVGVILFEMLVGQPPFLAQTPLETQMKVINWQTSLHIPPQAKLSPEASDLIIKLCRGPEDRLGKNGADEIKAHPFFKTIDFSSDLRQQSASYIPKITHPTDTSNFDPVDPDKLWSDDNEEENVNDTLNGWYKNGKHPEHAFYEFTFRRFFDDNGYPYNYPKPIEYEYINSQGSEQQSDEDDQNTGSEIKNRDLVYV
Chain of LATS1 (Q7L9L4 whole entry partner, looked up): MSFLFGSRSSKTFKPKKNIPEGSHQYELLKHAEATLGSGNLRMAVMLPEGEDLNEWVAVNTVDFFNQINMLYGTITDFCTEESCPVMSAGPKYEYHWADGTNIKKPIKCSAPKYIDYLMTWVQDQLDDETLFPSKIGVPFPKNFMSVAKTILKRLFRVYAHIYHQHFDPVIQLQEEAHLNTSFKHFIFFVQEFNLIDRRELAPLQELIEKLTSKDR

SMILES: CC(O)C(C)Nc1nc(-c2ccncc2)nc2cnccc12 (stereo not shown) [Example 24, 3-{[2-(pyridin-4-yl)pyrido[3,4-d]pyrimidin-4-yl]amino}butan-2-ol]
- IC50 (LATS1): 0.017 µM
- IC50 [1]: 34.7 µM
- EC50 [2]: 33.1 µM

SMILES: CC(C)(C#N)Nc1nc(-c2ccncc2)nc2cnccc12 [Example 107, 2-methyl-2-{[2-(pyridin-4-yl)pyrido[3,4-d]pyrimidin-4-yl]amino}propanenitrile]
- IC50 (LATS1): 0.008 µM
- IC50 [1]: 31.2 µM
- EC50 [2]: 20 µM

SMILES: CC1CCCCN1CC(C)(C)Nc1nc(-c2ccncc2)nc2cnccc12 (stereo not shown) [Example 108, N-[2-methyl-1-(2-methylpiperidin-1-yl)propan-2-yl]-2-(pyridin-4-yl)pyrido[3,4-d]pyrimidin-4-amine]
- IC50 (LATS1): 0.027 µM
- IC50 [1]: 11.8 µM
- EC50 [2]: > 19.3 µM

SMILES: CC(C)(Cc1ccc(F)cc1)Nc1nc(-c2ccncc2)nc2cnccc12 [Example 80, N-[1-(4-fluorophenyl)-2-methylpropan-2-yl]-2-(pyridin-4-yl)pyrido[3,4-d]pyrimidin-4-amine]
- IC50 (LATS1): 0.011 µM
- IC50 [1]: 21.6 µM
- EC50 [2]: 12.9 µM

SMILES: CC(C)(C)Nc1nc(-c2ccncc2)nc2cncc(NCCOCCO)c12 [Example 253]
- IC50 (LATS1): 0.085 µM
- IC50 [1]: 16.7 µM
- EC50 [2]: > 20 µM

SMILES: O=C(O)CC(Nc1nc(-c2ccncc2)nc2cnccc12)C(F)(F)F (stereo not shown) [Example 44, 4,4,4-trifluoro-3-{[2-(pyridin-4-yl)pyrido[3,4-d]pyrimidin-4-yl]amino}butanoic acid]
- IC50 (LATS1): > 2.5 µM
- IC50 [1]: > 10 µM
- EC50 [2]: > 20 µM

SMILES: NCCCCCCNc1nc(-c2ccncc2)nc2cnccc12 [Example 105, N-(6-aminohexyl)-2-(pyridin-4-yl)pyrido[3,4-d]pyrimidin-4-amine]
- IC50 (LATS1): 0.001 µM
- IC50 [1]: 19.9 µM
- EC50 [2]: > 20 µM

SMILES: Cc1[nH]ncc1-c1nc(N[C@H](C)c2ccccc2)c2ccncc2n1 [Example 168, 2-(5-methyl-1H-pyrazol-4-yl)-N-[(1R)-1-phenylethyl]pyrido[3,4-d]pyrimidin-4-amine]
- IC50 (LATS1): 0.028 µM
- IC50 [1]: 26.5 µM
- EC50 [2]: 11.6 µM

SMILES: c1cc(-c2nc(NC3CC3)c3ccncc3n2)ccn1 [Example 21, N-cyclopropyl-2-(pyridin-4-yl)pyrido[3,4-d]pyrimidin-4-amine]
- IC50 (LATS1): 0.007 µM
- IC50 [1]: 19.2 µM
- EC50 [2]: 8.81 µM

SMILES: CCN(c1nc(-c2ccncc2C)nc2cnccc12)C(C)C [Example 123, N-ethyl-2-(3-methylpyridin-4-yl)-N-(propan-2-yl)pyrido[3,4-d]pyrimidin-4-amine]
- IC50 (LATS1): 0.018 µM
- IC50 [1]: 9.45 µM
- EC50 [2]: 9.2 µM

SMILES: CC[C@H](C)Nc1nc(-c2ccncc2)nc2cnccc12 (single isomer, unassigned) [Example 68a]
- IC50 (LATS1): 0.001 µM
- IC50 [1]: 1.43 µM
- EC50 [2]: 1.68 µM

SMILES: CC(O)C(C)(C)Nc1nc(-c2ccncc2)nc2cnccc12 (stereo not shown) [Example 18, 3-methyl-3-{[2-(pyridin-4-yl)pyrido[3,4-d]pyrimidin-4-yl]amino}butan-2-ol]
- IC50 (LATS1): 0.006 µM
- IC50 [1]: 1.52 µM
- EC50 [2]: 3.46 µM

SMILES: CCCCN(C)c1nc(-c2ccncc2)nc2cnccc12 [Example 9, N-butyl-N-methyl-2-(pyridin-4-yl)pyrido[3,4-d]pyrimidin-4-amine]
- IC50 (LATS1): 0.003 µM
- IC50 [1]: 2.1 µM
- EC50 [2]: 2.42 µM

SMILES: CC(CO)(CO)Nc1nc(-c2ccncc2)nc2cnccc12 [Example 23, 2-methyl-2-{[2-(pyridin-4-yl)pyrido[3,4-d]pyrimidin-4-yl]amino}propane-1,3-diol]
- IC50 (LATS1): 0.01 µM
- IC50 [1]: 9.58 µM
- EC50 [2]: 11.8 µM

SMILES: CC1(Nc2nc(-c3cn[nH]c3)nc3cnccc23)CCC1 [Example 158, N-(1-methylcyclobutyl)-2-(1H-pyrazol-4-yl)pyrido[3,4-d]pyrimidin-4-amine]
- IC50 (LATS1): 0.008 µM
- IC50 [1]: 11.2 µM
- EC50 [2]: 6.29 µM

SMILES: CC(C)(Nc1nc(-c2ccncc2)nc2cnccc12)c1ccc(F)cc1 [Example 83, N-[2-(4-fluorophenyl)propan-2-yl]-2-(pyridin-4-yl)pyrido[3,4-d]pyrimidin-4-amine]
- IC50 (LATS1): 0.017 µM
- IC50 [1]: 42.1 µM
- EC50 [2]: 28.2 µM

SMILES: NCCCCNc1nc(-c2ccncc2)nc2cnccc12 [Example 106, N-(4-aminobutyl)-2-(pyridin-4-yl)pyrido[3,4-d]pyrimidin-4-amine]
- IC50 (LATS1): 0.003 µM
- IC50 [1]: 14.2 µM
- EC50 [2]: > 20 µM

SMILES: C[C@@H](Nc1nc(-c2ccnn2C)nc2cnccc12)c1ccccc1 [Example 170, 2-(1-methyl-1H-pyrazol-5-yl)-N-[(1R)-1-phenylethyl]pyrido[3,4-d]pyrimidin-4-amine]
- IC50 (LATS1): 1.28 µM
- IC50 [1]: > 10 µM
- EC50 [2]: > 20 µM

SMILES: CC(C)(Nc1nc(-c2c[nH]nc2C(F)(F)F)nc2cnccc12)C(F)(F)F [Example 145, N-(1,1,1-trifluoro-2-methylpropan-2-yl)-2-[3-(trifluoromethyl)-1H-pyrazol-4-yl]pyrido[3,4-d]pyrimidin-4-amine]
- IC50 (LATS1): 0.012 µM
- IC50 [1]: > 100 µM
- EC50 [2]: 9.31 µM

SMILES: CC1(Nc2nc(-n3ccc4ncccc43)nc3cnccc23)CC1 [Example 179, N-(1-methylcyclopropyl)-2-{1H-pyrrolo[3,2-b]pyridin-1-yl}pyrido[3,4-d]pyrimidin-4-amine]
- IC50 (LATS1): 0.002 µM
- IC50 [1]: > 10 µM
- EC50 [2]: > 20 µM

SMILES: Cc1n[nH]c(C)c1-c1nc(NC(C)(C)C(F)(F)F)c2ccncc2n1 [Example 144, 2-(3,5-dimethyl-1H-pyrazol-4-yl)-N-(1,1,1-trifluoro-2-methylpropan-2-yl)pyrido[3,4-d]pyrimidin-4-amine]
- IC50 [1]: 0.606 µM
- EC50 [2]: 4.44 µM

SMILES: CC1(Nc2nc(-c3ccnc4[nH]ccc34)nc3cnccc23)CC1 [Example 154, N-(1-methylcyclopropyl)-2-{1H-pyrrolo[2,3-b]pyridin-4-yl}pyrido[3,4-d]pyrimidin-4-amine]
- IC50 [1]: 2.53 µM
- EC50 [2]: 1.06 µM

SMILES: CC1(Nc2nc(-c3ccn[nH]3)nc3cnccc23)CC1 [Example 176, N-(1-methylcyclopropyl)-2-(1H-pyrazol-5-yl)pyrido[3,4-d]pyrimidin-4-amine]
- IC50 (LATS1): > 2.5 µM
- EC50 [2]: > 20 µM

SMILES: CC(C)(Nc1nc(-c2ccncc2)nc2cnccc12)C(=O)O [Example 34, 2-methyl-2-{[2-(pyridin-4-yl)pyrido[3,4-d]pyrimidin-4-yl]amino}propanoic acid]
- IC50 (LATS1): 0.095 µM
- EC50 [2]: > 20 µM

SMILES: CC(C)C(=O)Nc1nc(-c2ccncc2)nc2cnccc12 [Example 43, 2-methyl-N-[2-(pyridin-4-yl)pyrido[3,4-d]pyrimidin-4-yl]propanamide]
- IC50 (LATS1): > 1.97 µM
- EC50 [2]: > 20 µM

SMILES: Cn1cncc1-c1nc(NC2(C)CC2)c2ccncc2n1 [Example 178, 2-(1-methyl-1H-imidazol-5-yl)-N-(1-methylcyclopropyl)pyrido[3,4-d]pyrimidin-4-amine]
- IC50 (LATS1): > 2.5 µM
- EC50 [2]: > 20 µM

SMILES: Clc1cnccc1-c1nc(NC2CCCC2)c2ccncc2n1 [Example 126, 2-(3-chloropyridin-4-yl)-N-cyclopentylpyrido[3,4-d]pyrimidin-4-amine]
- IC50 (LATS1): 0.053 µM
- EC50 [2]: > 20 µM

SMILES: CC(C)(O)CC(C)(C)Nc1nc(-c2ccncc2C#N)nc2cnccc12 [Example 146, 4-{4-[(4-hydroxy-2,4-dimethylpentan-2-yl)amino]pyrido[3,4-d]pyrimidin-2-yl}pyridine-3-carbonitrile]
- IC50 (LATS1): 0.033 µM
- EC50 [2]: > 20 µM
